These results are taken from ChEMBL document CHEMBL3992481 (2016).

In brackets after ≈: the same amount, converted by molar mass. Activity calls are given as the source filed them. No cut-off for these calls is given here.

Experiment [1] concerns Mycobacterium tuberculosis H37Rv. Briefly: Inhibition of lipase in Mycobacterium tuberculosis H37Rv expressing GFP assessed as cell growth inhibition at 4 uM by fluorescence assay.
For experiment [2], the target named is T1, Esterase LipI (Mycobacterium tuberculosis (strain ATCC 25618 / H37Rv)) (UniProt P71668).
T1 sequence (whole entry): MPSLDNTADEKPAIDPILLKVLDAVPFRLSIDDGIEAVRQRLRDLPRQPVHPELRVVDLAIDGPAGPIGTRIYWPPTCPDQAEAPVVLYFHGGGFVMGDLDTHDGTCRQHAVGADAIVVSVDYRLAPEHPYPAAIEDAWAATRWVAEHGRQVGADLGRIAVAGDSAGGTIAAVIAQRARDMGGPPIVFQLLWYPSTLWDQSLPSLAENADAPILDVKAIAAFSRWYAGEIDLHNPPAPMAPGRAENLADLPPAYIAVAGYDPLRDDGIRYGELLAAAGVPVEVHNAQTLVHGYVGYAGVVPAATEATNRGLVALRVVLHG
Briefly: Competitive binding affinity to Mycobacterium tuberculosis H37Rv ATCC 25618 lipase-I at 60 uM preincubated for 60 mins followed by La-1 probe addition measured after 30 mins by ABPP method.

Experiment [3] addresses T2, Probable lipase/esterase LipG (Mycobacterium tuberculosis (strain ATCC 25618 / H37Rv)) (UniProt P96935).
T2 sequence (whole entry): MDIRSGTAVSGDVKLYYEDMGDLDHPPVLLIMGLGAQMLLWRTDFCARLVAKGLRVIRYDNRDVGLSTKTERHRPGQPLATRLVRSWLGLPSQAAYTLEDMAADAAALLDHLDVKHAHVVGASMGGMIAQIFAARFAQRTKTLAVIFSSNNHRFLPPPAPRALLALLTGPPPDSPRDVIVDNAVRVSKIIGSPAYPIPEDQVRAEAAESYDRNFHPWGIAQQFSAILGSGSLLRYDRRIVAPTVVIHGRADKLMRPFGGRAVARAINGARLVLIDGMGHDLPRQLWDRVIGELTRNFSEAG
Briefly: Competitive binding affinity to Mycobacterium tuberculosis H37Rv ATCC 25618 lipase-G at 60 uM preincubated for 60 mins followed by La-1 probe addition measured after 30 mins by ABPP method.

Experiment [4] concerns the target T3, Probable carboxylic ester hydrolase LipM (Mycobacterium tuberculosis (strain ATCC 25618 / H37Rv)) (UniProt Q50681).
T3 sequence (whole entry): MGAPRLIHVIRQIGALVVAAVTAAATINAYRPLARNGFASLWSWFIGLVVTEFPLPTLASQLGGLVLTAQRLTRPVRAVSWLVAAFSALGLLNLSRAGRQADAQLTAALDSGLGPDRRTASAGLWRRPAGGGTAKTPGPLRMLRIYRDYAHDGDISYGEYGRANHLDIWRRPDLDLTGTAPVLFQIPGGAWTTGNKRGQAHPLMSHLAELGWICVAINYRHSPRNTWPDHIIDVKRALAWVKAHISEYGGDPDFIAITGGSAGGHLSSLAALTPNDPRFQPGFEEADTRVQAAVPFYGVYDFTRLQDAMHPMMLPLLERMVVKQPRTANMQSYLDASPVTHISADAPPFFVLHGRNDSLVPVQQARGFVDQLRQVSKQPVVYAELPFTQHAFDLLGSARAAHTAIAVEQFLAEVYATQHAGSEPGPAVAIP
Description: Competitive binding affinity to Mycobacterium tuberculosis H37Rv ATCC 25618 lipase-M at 60 uM preincubated for 60 mins followed by La-1 probe addition measured after 30 mins by ABPP method.

In experiment [5] the target is T4, Carboxylic ester hydrolase (Mycobacterium tuberculosis (strain ATCC 25618 / H37Rv)) (UniProt O53488).
T4 sequence (whole entry): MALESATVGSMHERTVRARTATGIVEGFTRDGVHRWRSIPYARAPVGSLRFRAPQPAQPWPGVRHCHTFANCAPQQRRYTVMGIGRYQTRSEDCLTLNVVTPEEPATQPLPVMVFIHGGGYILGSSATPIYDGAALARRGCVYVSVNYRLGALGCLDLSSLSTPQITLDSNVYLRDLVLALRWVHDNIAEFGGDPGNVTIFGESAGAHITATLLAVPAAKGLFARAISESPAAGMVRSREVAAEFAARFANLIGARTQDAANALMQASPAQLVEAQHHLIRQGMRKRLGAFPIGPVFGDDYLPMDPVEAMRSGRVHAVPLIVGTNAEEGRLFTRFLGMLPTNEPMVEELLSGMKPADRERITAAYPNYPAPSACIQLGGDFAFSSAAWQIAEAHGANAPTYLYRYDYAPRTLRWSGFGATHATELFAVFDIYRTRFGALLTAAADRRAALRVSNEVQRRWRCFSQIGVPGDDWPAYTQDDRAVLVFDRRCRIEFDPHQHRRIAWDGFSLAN
Briefly: Competitive binding affinity to Mycobacterium tuberculosis H37Rv ATCC 25618 lipase-T at 60 uM preincubated for 60 mins followed by La-1 probe addition measured after 30 mins by ABPP method.

Experiment [6] concerns the target T5, Probable esterase LipO (Mycobacterium tuberculosis (strain ATCC 25618 / H37Rv)) (UniProt O06832).
T5 sequence (whole entry): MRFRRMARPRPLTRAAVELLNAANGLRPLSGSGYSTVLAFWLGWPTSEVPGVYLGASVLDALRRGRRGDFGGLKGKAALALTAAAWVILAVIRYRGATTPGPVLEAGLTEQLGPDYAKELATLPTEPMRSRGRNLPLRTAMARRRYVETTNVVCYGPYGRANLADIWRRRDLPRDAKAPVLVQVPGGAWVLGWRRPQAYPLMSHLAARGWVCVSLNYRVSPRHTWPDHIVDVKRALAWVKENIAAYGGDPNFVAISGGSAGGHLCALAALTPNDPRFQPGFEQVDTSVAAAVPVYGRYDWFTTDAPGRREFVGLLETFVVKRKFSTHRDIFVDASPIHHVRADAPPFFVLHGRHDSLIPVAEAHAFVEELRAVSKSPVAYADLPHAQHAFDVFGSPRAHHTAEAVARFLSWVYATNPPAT
Description: Competitive binding affinity to Mycobacterium tuberculosis H37Rv ATCC 25618 lipase-O at 60 uM preincubated for 60 mins followed by La-1 probe addition measured after 30 mins by ABPP method.

Experiment [7] deals with Mycobacterium tuberculosis H37Rv. Briefly: Inhibition of lipase in Mycobacterium tuberculosis H37Rv assessed as cell growth inhibition after 7 days by resazurin assay. On the technique in general: Alamar Blue is a resazurin reagent that responds to reducing activity.
For experiment [8], the target named is T6, Carboxylic ester hydrolase LipN (Mycobacterium tuberculosis (strain ATCC 25618 / H37Rv)) (UniProt P95125).
T6 sequence (whole entry): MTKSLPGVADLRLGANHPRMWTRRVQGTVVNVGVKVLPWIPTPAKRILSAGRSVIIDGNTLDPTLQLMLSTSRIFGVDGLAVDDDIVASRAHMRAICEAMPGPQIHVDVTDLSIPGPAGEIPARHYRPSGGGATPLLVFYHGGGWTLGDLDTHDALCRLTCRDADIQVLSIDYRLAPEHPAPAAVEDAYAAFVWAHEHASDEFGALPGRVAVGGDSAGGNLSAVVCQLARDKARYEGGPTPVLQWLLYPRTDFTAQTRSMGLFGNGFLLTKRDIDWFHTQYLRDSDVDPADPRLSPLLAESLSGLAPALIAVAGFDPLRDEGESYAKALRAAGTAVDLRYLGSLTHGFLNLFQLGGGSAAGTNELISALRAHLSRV
Briefly: Competitive binding affinity to Mycobacterium tuberculosis H37Rv ATCC 25618 lipaseN at 60 uM preincubated for 60 mins followed by La-1 probe addition measured after 30 mins by ABPP method.

Experiment [9] has as its system Mycobacterium tuberculosis H37Rv. Description: Inhibition of lipase in Mycobacterium tuberculosis H37Rv infected in human monocyte derived macrophages assessed as inhibition of bacterial growth treated for 7 days starting from 4 day post infection relative to control.
The target in experiment [10] is T7, Putative acetyl-hydrolase LipR (Mycobacterium tuberculosis (strain ATCC 25618 / H37Rv)) (UniProt P9WK85).
T7 sequence (whole entry): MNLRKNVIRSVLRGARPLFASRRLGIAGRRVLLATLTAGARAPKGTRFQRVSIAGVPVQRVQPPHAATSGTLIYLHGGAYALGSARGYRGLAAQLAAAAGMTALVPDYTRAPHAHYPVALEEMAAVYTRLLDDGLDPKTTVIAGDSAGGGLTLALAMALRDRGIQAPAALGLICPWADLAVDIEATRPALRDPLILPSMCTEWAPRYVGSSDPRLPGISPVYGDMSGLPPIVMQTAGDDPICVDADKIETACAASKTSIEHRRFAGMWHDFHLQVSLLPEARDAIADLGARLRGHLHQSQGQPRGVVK
Description: Competitive binding affinity to Mycobacterium tuberculosis H37Rv ATCC 25618 lipaseR at 60 uM preincubated for 60 mins followed by La-1 probe addition measured after 30 mins by ABPP method.

Experiment [11] has as its system Mycobacterium tuberculosis H37Rv. Briefly: Ratio of MIC for inhibition of lipase in Mycobacterium tuberculosis H37Rv assessed as cell growth inhibition in absence of vancomycin to MIC for inhibition of lipase in Mycobacterium tuberculosis H37Rv assessed as cell growth inhibition in presence of vancomycin.
In experiment [12] the test system is Mycobacterium tuberculosis. Briefly: Antitubercular activity against Mycobacterium tuberculosis H37Rv assessed as cell growth inhibition by microbroth dilution assay. The experiment is classed as functional. For orientation: Broth dilution looks for growth in wells or tubes with falling amounts of substance.
Experiment [13] concerns Mycobacterium tuberculosis. Briefly: Antitubercular activity against Mycobacterium tuberculosis H37Rv. The experiment is classed as functional.
Experiment [14] deals with T7, Putative acetyl-hydrolase LipR (Mycobacterium tuberculosis (strain ATCC 25618 / H37Rv)). Description: Binding affinity to N-terminal His6-tagged Mycobacterium tuberculosis H37Rv ATCC 25618 lipase-R at 30 uM after 30 mins by RhN3 staining based fluorescence assay.
For experiment [15], the system named is Mycobacterium tuberculosis H37Rv. Description: Ratio of MIC for inhibition of lipase in Mycobacterium tuberculosis H37Rv assessed as cell growth inhibition in absence of lalistat to MIC for inhibition of lipase in Mycobacterium tuberculosis H37Rv assessed as cell growth inhibition in presence of lalistat.

As to `O=C(Oc1nsnc1N1CCCCC1)N1CCCCC1`, the “growth inhibition (GI)” value in experiment [1] was “Active”. The outcome in experiment [2], in [3], in [4], in [5], in experiment [6] and in experiment [8] was Active. Further, the outcome in experiment [10] was Active. For the same compound, in experiment [7], the MIC is 25 to 50 µM (≈ 7.41 to 14.8 µg/mL). The growth inhibition (GI) in experiment [9] turned out to be 55%. For the same compound, the Ratio in experiment [11] came out at 4.
In the case of `NNC(=O)c1ccncc1` [ISONIAZID], in [12], the MIC was 0.04 to 1 µM.
Consider `CCCCCCCCCCC[C@@H](C[C@@H]1OC(=O)[C@H]1CCCCCC)OC(=O)[C@H](CC(C)C)NC=O` [ORLISTAT], for which the MIC in [13] was determined as 30 µM (≈ 14.9 µg/mL).
In the case of `CO[C@H]1/C=C/O[C@@]2(C)Oc3c(C)c(O)c4c(O)c(c(/C=N/N5CCN(C)CC5)c(O)c4c3C2=O)NC(=O)/C(C)=C\C=C\[C@H](C)[C@H](O)[C@@H](C)[C@@H](O)[C@@H](C)[C@H](OC(C)=O)[C@@H]1C` [RIFAMPIN], the MIC in experiment [12] is 0.04 to 1 µM.
As to `C#CC1CCN(C(=O)Oc2nsnc2N2CCCCC2)CC1`, in experiment [14], the result was Active. Also, the “growth inhibition (GI)” value in experiment [7] is “Active”.
For `CN[C@H](CC(C)C)C(=O)N[C@H]1C(=O)N[C@@H](CC(N)=O)C(=O)N[C@H]2C(=O)N[C@H]3C(=O)N[C@H](C(=O)N[C@H](C(=O)O)c4cc(O)cc(O)c4-c4cc3ccc4O)[C@H](O)c3ccc(c(Cl)c3)Oc3cc2cc(c3O[C@@H]2O[C@H](CO)[C@@H](O)[C@H](O)[C@H]2O[C@H]2C[C@](C)(N)[C@H](O)[C@H](C)O2)Oc2ccc(cc2Cl)[C@H]1O`, in [15], the Ratio was found to be 16.
